# Data reported in PubChem BioAssay (NCI).
#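 Five concentrations, 48 hours, 96-well plates. Here, GI50 denotes the concentration required for 50% inhibition of growth. The concentration for full growth arrest is given as TGI.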
# Tests used:
# Test in all cases: growth of human tumour cells (NCI), 48 h
# [1] = test system: SNB-19 CNS
# [2] = test system: EKVX NSCLC
# [3] = test system: SF-295 CNS
# [4] = test system: UO-31 renal
# [5] = test system: HL-60(TB) leukemia
# [6] = test system: HOP-92 NSCLC
# [7] = test system: OVCAR-4 ovarian
# [8] = test system: SW-620 colon
# [9] = test system: SK-MEL-28 melanoma
# [10] = test system: LOX IMVI melanoma
# [11] = test system: SR leukemia
# [12] = test system: M14 melanoma
# [13] = test system: A549 NSCLC
# [14] = test system: COLO 205 colon
# [15] = test system: SF-268 CNS
# [16] = test system: MDA-MB-435
# [17] = test system: DU-145 prostate
# [18] = test system: TK-10 renal
# [19] = test system: HCT-116 colon
# [20] = test system: HCC-2998 colon
# [21] = test system: NCI-H23 lung
# [22] = test system: KM12 colon
# [23] = test system: OVCAR-8 ovarian
# [24] = test system: CAKI-1 renal
# [25] = test system: RPMI-8226 leukemia
# [26] = test system: OVCAR-5 ovarian
# [27] = test system: HS 578T breast
# [28] = test system: A498 renal
# [29] = test system: ACHN renal
# [30] = test system: OVCAR-3 ovarian
# [31] = test system: T-47D breast
# [32] = test system: UACC-257 melanoma
# [33] = test system: MALME-3M melanoma
# [34] = test system: NCI-H460 lung
# [35] = test system: HT29 colon
# [36] = test system: CCRF-CEM leukemia
# [37] = test system: SNB-75 CNS
# [38] = test system: BT-549 breast
# [39] = test system: SF-539 CNS
# [40] = test system: PC-3 prostate
# [41] = test system: HCT-15 colon
# [42] = test system: U251 CNS
# [43] = test system: UACC-62 melanoma
# [44] = test system: RXF 393 renal
# [45] = test system: MCF7 breast
# [46] = test system: MOLT-4 leukemia
# [47] = test system: MDA-MB-231 breast
# [48] = test system: IGROV1 ovarian
# [49] = test system: SK-MEL-5 melanoma
# [50] = test system: NCI/ADR-RES ovarian
# [51] = test system: SK-OV-3 ovarian
# [52] = test system: NCI-H226 lung
# [53] = test system: HOP-62 NSCLC
# [54] = test system: SN12C renal
# [55] = test system: 786-0 renal
# [56] = test system: SK-MEL-2 melanoma
# [57] = test system: NCI-H522 lung
# [58] = test system: K-562 leukemia
structure (smiles),measurement,setting,value
COc1ccc(C(=O)N2N=C(c3ccc(Br)cc3)CC2c2cn(-c3ccccc3)nc2-c2ccccc2)cc1 (stereo unspecified),GI50,[1],20.4 µM
same,TGI,[1],> 50 µM
same,GI50,[2],> 50 µM
same,TGI,[2],> 50 µM
same,GI50,[3],17 µM
same,TGI,[3],> 50 µM
same,GI50,[4],42.6 µM
same,TGI,[4],> 50 µM
same,GI50,[5],30.5 µM
same,TGI,[5],> 50 µM
same,GI50,[6],1.79 µM
same,TGI,[6],15.8 µM
same,GI50,[7],15.2 µM
same,TGI,[7],> 50 µM
same,GI50,[8],> 50 µM
same,TGI,[8],> 50 µM
same,GI50,[9],> 50 µM
same,TGI,[9],> 50 µM
same,GI50,[10],42.1 µM
same,TGI,[10],> 50 µM
same,GI50,[11],7.78 µM
same,TGI,[11],16.2 µM
same,GI50,[12],15.7 µM
same,TGI,[12],> 50 µM
same,GI50,[13],4.28 µM
same,TGI,[13],> 50 µM
same,GI50,[14],> 50 µM
same,TGI,[14],> 50 µM
same,GI50,[15],34.8 µM
same,TGI,[15],> 50 µM
same,GI50,[16],> 50 µM
same,TGI,[16],> 50 µM
same,GI50,[17],25 µM
same,TGI,[17],> 50 µM
same,GI50,[18],20.6 µM
same,TGI,[18],> 50 µM
same,GI50,[19],2.87 µM
same,TGI,[19],> 50 µM
same,GI50,[20],> 50 µM
same,TGI,[20],> 50 µM
same,GI50,[21],20.8 µM
same,TGI,[21],> 50 µM
same,GI50,[22],> 50 µM
same,TGI,[22],> 50 µM
same,GI50,[23],8.55 µM
same,TGI,[23],> 50 µM
same,GI50,[24],41.7 µM
same,TGI,[24],> 50 µM
same,GI50,[25],> 50 µM
same,TGI,[25],> 50 µM
same,GI50,[26],> 50 µM
same,TGI,[26],> 50 µM
same,GI50,[27],20.5 µM
same,TGI,[27],> 50 µM
same,GI50,[28],6.82 µM
same,TGI,[28],28.5 µM
same,GI50,[29],18.9 µM
same,TGI,[29],> 50 µM
same,GI50,[30],23.9 µM
same,TGI,[30],> 50 µM
same,GI50,[31],13.4 µM
same,TGI,[31],> 50 µM
same,GI50,[32],> 50 µM
same,TGI,[32],> 50 µM
same,GI50,[33],> 50 µM
same,TGI,[33],> 50 µM
same,GI50,[34],15.3 µM
same,TGI,[34],> 50 µM
same,GI50,[35],> 50 µM
same,TGI,[35],> 50 µM
same,GI50,[36],9.86 µM
same,TGI,[36],29.7 µM
same,GI50,[37],30.3 µM
same,TGI,[37],> 50 µM
same,GI50,[38],30.6 µM
same,TGI,[38],> 50 µM
same,GI50,[39],39.5 µM
same,TGI,[39],> 50 µM
same,GI50,[40],> 50 µM
same,TGI,[40],> 50 µM
same,GI50,[41],> 50 µM
same,TGI,[41],> 50 µM
same,GI50,[42],13 µM
same,TGI,[42],> 50 µM
same,GI50,[43],42.8 µM
same,TGI,[43],> 50 µM
same,GI50,[44],6.28 µM
same,TGI,[44],> 50 µM
same,GI50,[45],> 50 µM
same,TGI,[45],> 50 µM
same,GI50,[46],11.4 µM
same,TGI,[46],25.3 µM
same,GI50,[47],5.47 µM
same,TGI,[47],> 50 µM
same,GI50,[48],19.4 µM
same,TGI,[48],> 50 µM
same,GI50,[49],15 µM
same,TGI,[49],> 50 µM
same,GI50,[50],33 µM
same,TGI,[50],> 50 µM
same,GI50,[51],12.1 µM
same,TGI,[51],36.3 µM
same,GI50,[52],18.3 µM
same,TGI,[52],> 50 µM
same,GI50,[53],9.05 µM
same,TGI,[53],44.5 µM
same,GI50,[54],47.4 µM
same,TGI,[54],> 50 µM
same,GI50,[55],19 µM
same,TGI,[55],> 50 µM
COc1ccc(CN(Cc2ccc(OC)cc2)C(=O)CC2(O)CCc3ccccc3C2)cc1 (stereo unspecified),TGI,[1],> 100 µM
same,TGI,[2],> 100 µM
same,TGI,[3],> 100 µM
same,TGI,[4],> 100 µM
same,TGI,[5],80.1 µM
same,TGI,[6],> 100 µM
same,TGI,[7],> 100 µM
same,TGI,[8],> 100 µM
same,TGI,[9],> 100 µM
same,TGI,[10],> 100 µM
same,TGI,[11],> 100 µM
same,TGI,[56],> 100 µM
same,TGI,[12],> 100 µM
same,TGI,[13],> 100 µM
same,TGI,[14],57.4 µM
same,TGI,[16],> 100 µM
same,TGI,[57],> 100 µM
same,TGI,[17],> 100 µM
same,TGI,[18],> 100 µM
same,TGI,[19],> 100 µM
same,TGI,[20],> 100 µM
same,TGI,[21],> 100 µM
same,TGI,[22],> 100 µM
same,TGI,[23],> 100 µM
same,TGI,[24],> 100 µM
same,TGI,[25],> 100 µM
same,TGI,[26],> 100 µM
same,TGI,[27],> 100 µM
same,TGI,[28],> 100 µM
same,TGI,[58],> 100 µM
same,TGI,[29],> 100 µM
same,TGI,[30],> 100 µM
same,TGI,[31],> 100 µM
same,TGI,[32],> 100 µM
same,TGI,[33],> 100 µM
same,TGI,[34],> 100 µM
same,TGI,[35],> 100 µM
same,TGI,[36],> 100 µM
same,TGI,[37],> 100 µM
same,TGI,[38],> 100 µM
same,TGI,[39],> 100 µM
same,TGI,[40],> 100 µM
same,TGI,[41],> 100 µM
same,TGI,[42],> 100 µM
same,TGI,[43],> 100 µM
same,TGI,[45],> 100 µM
same,TGI,[46],56 µM
same,TGI,[47],> 100 µM
same,TGI,[48],> 100 µM
same,TGI,[49],> 100 µM
same,TGI,[50],> 100 µM
same,TGI,[51],> 100 µM
same,TGI,[52],> 100 µM
same,TGI,[53],> 100 µM
same,TGI,[54],> 100 µM
same,TGI,[55],> 100 µM
